Experiments:
[1] = target: T1, rat adrenergic α1B receptor (Rattus norvegicus, UniProt P15823); assay: Radioligand binding, adrenergic α1B receptor ([3H]Prazosin); details: 0.1 μM compound, Wistar rat liver, read-out: Percentage inhibition of ligand binding, Adrenergic α1B
T1 construct: rat adrenergic α1B receptor obtained from Wistar Rat liver; from tissue; host or cells: Wistar rat liver
T1 sequence (P15823 1-515): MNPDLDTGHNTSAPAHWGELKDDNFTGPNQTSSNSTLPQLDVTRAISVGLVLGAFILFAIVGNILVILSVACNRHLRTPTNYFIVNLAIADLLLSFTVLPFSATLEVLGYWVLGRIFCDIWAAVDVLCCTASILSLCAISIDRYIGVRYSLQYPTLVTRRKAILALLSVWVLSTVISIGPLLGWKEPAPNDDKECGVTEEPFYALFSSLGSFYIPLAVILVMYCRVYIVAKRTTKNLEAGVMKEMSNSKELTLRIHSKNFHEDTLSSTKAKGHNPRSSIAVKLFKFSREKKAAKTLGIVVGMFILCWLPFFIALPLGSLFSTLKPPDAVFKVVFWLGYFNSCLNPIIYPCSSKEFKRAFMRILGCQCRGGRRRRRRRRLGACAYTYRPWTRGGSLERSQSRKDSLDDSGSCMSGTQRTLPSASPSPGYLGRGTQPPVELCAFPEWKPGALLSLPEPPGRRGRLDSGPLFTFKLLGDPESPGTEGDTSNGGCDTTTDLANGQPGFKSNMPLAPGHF
Protocol: To evaluate in radioligand binding assays the activity of compounds, rat adrenergic α1B receptor obtained from Wistar Rat liver (Garcia-S' ainz, J. et al, Biochem. Biophys. Res. Commun. 186:760, 1992; Michel, A. et al, Br. J. Pharmacol. 98:883, 1989) in a modified Tris-HCl buffer (50 mM Tris-HCl buffer, pH 7.4, 0.5 mM EDTA) was used. Compounds were incubated with 0.25 nM [^3H]Prazosin for 60 min at […]. Non-specific binding was estimated in the presence of 10 μM phentolamine. Receptor proteins were filtered and washed, the filters were then counted to determine [^3H]Prazosin specifically bound. Compounds were screened at 1 μM or lower, using 1% DMSO as vehicle. Compounds were tested in this biochemical assay and percent inhibition of specific binding was determined. Biochemical assay results are presented as the percent inhibition of specific binding in Table 2.

[2] = target: T2, human recombinant adrenergic α1D receptor (Homo sapiens, UniProt P25100); assay: Radioligand binding, adrenergic α1D receptor ([3H]Prazosin); details: 0.1 μM compound; HEK-293 cells; 0.6 nM [3H]Prazosin; read-out: Percentage inhibition of ligand binding, Adrenergic α1D
T2 construct: expressed in transfected cells; host or cells: HEK-293
T2 sequence (P25100 1-572): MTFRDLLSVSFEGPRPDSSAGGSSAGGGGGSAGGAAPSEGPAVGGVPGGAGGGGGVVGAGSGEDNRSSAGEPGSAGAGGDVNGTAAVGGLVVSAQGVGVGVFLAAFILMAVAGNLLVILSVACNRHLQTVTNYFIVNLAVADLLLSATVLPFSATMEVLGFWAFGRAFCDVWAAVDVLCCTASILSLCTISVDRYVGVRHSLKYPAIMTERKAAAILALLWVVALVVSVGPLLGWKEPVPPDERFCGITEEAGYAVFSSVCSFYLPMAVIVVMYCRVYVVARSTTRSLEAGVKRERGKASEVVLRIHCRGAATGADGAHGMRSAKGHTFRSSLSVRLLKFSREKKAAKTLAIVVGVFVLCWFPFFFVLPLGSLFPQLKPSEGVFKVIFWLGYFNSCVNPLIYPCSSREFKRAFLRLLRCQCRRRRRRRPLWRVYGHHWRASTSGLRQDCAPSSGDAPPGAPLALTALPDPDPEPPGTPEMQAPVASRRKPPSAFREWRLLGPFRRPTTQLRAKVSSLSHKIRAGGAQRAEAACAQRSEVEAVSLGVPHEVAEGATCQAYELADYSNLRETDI
Protocol: Compounds were incubated with 0.6 nM [3H]Prazosin for 60 min at 25° C. Non-specific binding was estimated in the presence of 10 μM phentolamine. Receptor proteins were filtered and washed, the filters were then counted to determine [3H]Prazosin specifically bound. Compounds were screened at 1 μM or lower, using 1% DMSO as vehicle. Biochemical assay results are presented as the percent inhibition of specific binding in Table 2.

[3] = target: T3, human recombinant adrenergic α2A receptor (Homo sapiens, UniProt P08913); assay: Radioligand binding, adrenergic α2A receptor ([3H]MK-912); details: 0.1 μM compound; Sf9 cells; 1 nM [3H]MK-912; read-out: Percentage inhibition of ligand binding, Adrenergic α2A
T3 construct: expressed in transfected cells; host or cells: insect Sf9 cells
T3 sequence (P08913 1-465): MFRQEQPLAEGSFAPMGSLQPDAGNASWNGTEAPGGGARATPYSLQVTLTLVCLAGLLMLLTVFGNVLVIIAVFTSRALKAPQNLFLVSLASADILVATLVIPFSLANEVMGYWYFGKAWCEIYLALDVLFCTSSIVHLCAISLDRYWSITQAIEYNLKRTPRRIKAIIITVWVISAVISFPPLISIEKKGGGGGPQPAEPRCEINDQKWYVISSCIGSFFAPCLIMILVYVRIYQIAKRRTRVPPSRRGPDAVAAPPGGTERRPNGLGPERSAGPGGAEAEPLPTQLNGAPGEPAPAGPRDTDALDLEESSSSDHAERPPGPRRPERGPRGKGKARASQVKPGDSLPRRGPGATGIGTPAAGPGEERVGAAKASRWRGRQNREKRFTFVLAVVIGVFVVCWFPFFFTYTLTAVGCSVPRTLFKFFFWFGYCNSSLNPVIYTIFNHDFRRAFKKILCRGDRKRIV
Protocol: To evaluate in radioligand binding assays the activity of compounds, human recombinant adrenergic α2A receptor expressed in insect Sf9 cells (Uhlen, S. et al, J. Pharmacol. Exp. Ther. 271:1558, 1994) in a modified Tris-HCl buffer (50 mM Tris-HCl, pH 7.4, 12.5 mM MgCl2, 2 mM EDTA) was used. Compounds were incubated with 1 nM [^3H]MK-912 for 60 min at 25° C. MK912 is (2S-trans)-1,3,4,5′,6,6′,7,12b-octahydro-1′,3′-dimethyl-spiro[2H-benzofuro[2,3-a]quinolizine-2,4′(1′H)-pyrimidin]-2′(3′H)-one hydrochloride Non-specific binding was estimated in the presence of 10 μM WB-4101 (2-(2,6-Dimethoxyphenoxyethyl)aminoethyl-1,4-benzodioxane hydrochloride). Receptor proteins were filtered and washed, the filters were then counted to determine [^3H]MK-912 specifically bound. Compounds were screened at 1 μM or lower, using 1% DMSO as vehicle. Compounds were tested in this biochemical assay and percent inhibition of specific binding was determined. Biochemical assay results are presented as the percent inhibition of specific binding in Table 2.

[4] = target: T4, human recombinant adrenergic α2B receptor (Homo sapiens, UniProt P18089); assay: Radioligand binding, adrenergic α2B receptor ([3H]Rauwolscine); details: 0.1 μM compound, CHO-K1 cells, read-out: Percentage inhibition of ligand binding, Adrenergic α2B
T4 construct: expressed in transfected cells; host or cells: CHO-K1
T4 sequence (P18089 1-450): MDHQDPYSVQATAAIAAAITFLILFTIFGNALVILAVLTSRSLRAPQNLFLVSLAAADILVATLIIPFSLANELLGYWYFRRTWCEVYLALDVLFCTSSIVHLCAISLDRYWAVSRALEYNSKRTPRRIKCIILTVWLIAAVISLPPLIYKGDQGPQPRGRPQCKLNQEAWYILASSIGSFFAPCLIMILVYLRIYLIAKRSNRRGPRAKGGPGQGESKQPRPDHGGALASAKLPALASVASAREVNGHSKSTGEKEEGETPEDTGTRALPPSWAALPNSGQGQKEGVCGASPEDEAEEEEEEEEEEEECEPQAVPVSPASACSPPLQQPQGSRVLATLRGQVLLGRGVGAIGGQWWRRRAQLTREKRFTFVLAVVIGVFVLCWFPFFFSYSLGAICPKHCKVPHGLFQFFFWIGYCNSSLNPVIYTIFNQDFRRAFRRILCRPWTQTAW
Protocol: To evaluate in radioligand binding assays the activity of compounds, human recombinant adrenergic α2B receptor expressed in Chinese hamster ovary (CHO) K1 cells (Uhlen, S. et al, Eur. J. Pharmacol. 343(1):93, 1998) in a modified Tris-HCl buffer (50 mM Tris-HCl, pH 7.4, 12.5 mM MgCl2, 1 mM EDTA, 0.2% BSA) was used. Compounds were incubated with 2.5 nM [^3H]Rauwolscine for 60 min at 25° C. Non-specific binding was estimated in the presence of 10 μM Prazosin. Receptor proteins were filtered and washed, the filters were then counted to determine [^3H]Rauwolscine specifically bound. Compounds were screened at 1 μM or lower, using 1% DMSO as vehicle. Compounds were tested in this biochemical assay and percent inhibition of specific binding was determined. Biochemical assay results are presented as the percent inhibition of specific binding in Table 2.

| inhibition at 0.1 µM [1] [%] | inhibition at 0.1 µM [2] [%] | inhibition at 0.1 µM [3] [%] | inhibition at 0.1 µM [4] [%] | Structure (SMILES) |
| --- | --- | --- | --- | --- |
| 6 | -3 | 43 | 36 | Cc1ccc2c(c1)c1c(n2-c2cccc(-c3ccc(O)nc3)c2)CCN(C)C1 [Compound 52, 5-(3-(2,8-dimethyl-3,4-dihydro-1H-pyrido[4,3-b]indol-5(2H)-yl)phenyl)pyridin-2-ol] |
| 36 | 65 | 4 | 90 | CC(=O)Nc1ccc(-c2cscc2-n2c3c(c4cc(C)ccc42)CN(C)CC3)cn1 [Compound 56] |
| 47 | 65 | 77 | 91 | Cc1ccc2c(c1)c1c(n2-c2ccccc2-c2ccc(C)nc2)CCN(C)C1 [Compound 59, 2,8-dimethyl-5-(2-(6-methylpyridin-3-yl)phenyl)-2,3,4,5-tetrahydro-1H-pyrido[4,3-b]indole] |
| 4 | 9 | 62 | 14 | Cc1ccc2c(c1)c1c(n2-c2cccc(-c3ccc(C)nc3)c2)CCN(C)C1 [Compound 60, 2,8-dimethyl-5-(3-(6-methylpyridin-3-yl)phenyl)-2,3,4,5-tetrahydro-1H-pyrido[4,3-b]indole] |
| 32 | 18 | 67 | 19 | Cc1ccc2c(c1)c1c(n2-c2cscc2-c2c(C)noc2C)CCN(C)C1 [Compound No. 62] |

Further lines, the compound ahead of its results:

| Structure (SMILES) | inhibition at 0.1 µM [1] [%] | inhibition at 0.1 µM [2] [%] | inhibition at 0.1 µM [3] [%] | inhibition at 0.1 µM [4] [%] |
| --- | --- | --- | --- | --- |
| Cc1ccc2c(c1)c1c(n2-c2cccc(-c3cc4ccccc4s3)c2)CCN(C)C1 [Compound 51, 5-(3-(benzo[b]thiophen-2-yl)phenyl)-2,8-dimethyl-2,3,4,5-tetrahydro-1H-pyrido[4,3-b]indole] | 10 | 12 | 27 | 7 |
| Cc1ccc2c(c1)c1c(n2-c2cccc(-c3ccc4c(ccn4C)c3)c2)CCN(C)C1 [Compound 53, 2,8-dimethyl-5-(3-(1-methyl-1H-indol-5-yl)phenyl)-2,3,4,5-tetrahydro-1H-pyrido[4,3-b]indole] | 8 | 0 | 24 | 15 |
| Cc1ccc2c(c1)c1c(n2-c2cccc(-c3ccc4[nH]cnc4c3)c2)CCN(C)C1 [Compound 54, 5-(3-(1H-benzo[d]imidazol-5-yl)phenyl)-2,8-dimethyl-2,3,4,5-tetrahydro-1H-pyrido[4,3-b]indole] | 8 | -3 | 23 | 3 |
| Cc1cc(C)c2c(c1)c1c(n2-c2cccc(-c3ccncc3)c2)CCN(C)C1 [Compound 57, 2,6,8-trimethyl-5-(3-(pyridin-4-yl)phenyl)-2,3,4,5-tetrahydro-1H-pyrido[4,3-b]indole] | 6 | -1 | 7 | 11 |
| Cc1ccc2c(c1)c1c(n2-c2cccc3ccncc23)CCN(C)C1 [Compound 58, 5-(isoquinolin-8-yl)-2,8-dimethyl-2,3,4,5-tetrahydro-1H-pyrido[4,3-b]indole] | 22 | 24 | 22 | 39 |
| Cc1ccc2c(c1)c1c(n2-c2cccc(-c3ccc(F)cc3)c2)CCN(C)C1 [Compound No. 61, 5-(4′-fluorophenyl-3-yl)-2,8-dimethyl-2,3,4,5-tetrahydro-1H-pyrido[4,3-b]indole] | 11 | 5 | 23 | 7 |
| Cc1csc(-c2cccc(-n3c4c(c5cc(C)ccc53)CN(C)CC4)c2)c1 [Compound No. 63, 2,8-dimethyl-5-(3-(4-methylthiophen-2-yl)phenyl)-2,3,4,5-tetrahydro-1H-pyrido[4,3-b]indole] | 2 | 5 | 30 | 11 |

— patent US20140155384A1, “COMPOUNDS AND METHODS OF TREATING DIABETES” (Medivation Technologies, Inc., priority 2011, published 2014)
